Where “and” joins values, the source holds several entries; their conditions need not be identical. Identical values can stand only once.
Experiment: Pharmacokinetic studies in uninfected CD-1 mice (plasma and urine levels)
Assay type: in vivo
Details: for epimerization in plasma and urine in vivo / urine concentrations at time points > 24 hours / plasma levels at 30 mg/kg IV compared with 15 mg/kg IV / urine levels at 30 mg/kg IV compared with 15 mg/kg IV: mice; for F (bioavailability) / AUC0-t / C0 / Cl/F_obs / MRT / Vz/F_obs / t1/2 (plasma half-life) / Cmax / Tmax: CD-1 mice
Method: CHD and CDCHD were administered in single PK studies at the doses of 15 mg/kg and 30 mg/kg IV, at 15 mg/kg SC, and 15 mg/kg PO. Up to 25 µL of blood was collected from the lateral tail vein (n = 3 per time point) and time points t = 0.5, 1, 2, 4, and 8 hours. For 15 mg/kg IV- and PO-administered compounds, blood was also collected at time points t = 24 and 48 hours. For IV- and SC-administered compounds, blood was also collected at t = 0.25 hours. At t = 24 hours (15 mg/kg SC, 30 mg/kg IV) or 72 hours (15 mg/kg IV and PO), animals were euthanized to collect blood. At every blood collection, time point spontaneous urine was collected as well. Whole blood was collected into Eppendorf tubes coated with 0.5 M EDTA and immediately spun down at 15,870× g for 10 min at 4°C. Then, plasma was transferred into a new Eppendorf tube and stored at −80°C until analysis.
First, a calibration curve was prepared by spiking different concentrations of CHD and CDCHD into mouse plasma or mouse urine (matrix for mouse PK or PD samples) from CD-1 mice. Caffeine was used as an internal standard. In addition, quality control samples (QCs) were prepared for CHD and CDCHD in plasma and urine. The following extraction procedures were used: 7.5 µL of a plasma or urine sample (calibration samples, QCs, PK or PD samples) was extracted with 37.5 µL of a mixture of methanol/acetonitrile (2:1) containing 12.5 ng/mL of glipizide as an internal standard for 5 min at 2,000 rpm on an Eppendorf MixMate® vortex mixer. Then samples were spun down at 15,870× g for 10 min. Supernatants were transferred to standard HPLC glass vials.
Samples were analyzed using an Agilent 1290 HPLC system coupled to an AB Sciex QTrap 6500 mass spectrometer. LC conditions were as follows: column: Agilent Zorbax Eclipse Plus C18, 50 × 2.1 mm, 1.8 µm; temperature: 30°C; injection volume: 5 µL per sample; flow rate: 700 µL/min. Samples were run under the following conditions. Solvents for acidic conditions: A: 100% water +0.1% formic acid; solvent B: 100% acetonitrile +0.1% formic acid. The gradient for CDCHD was as follows: 99% A at 0 min, 99% A until 1 min, 99%–50% A from 1 to 2.4 min, 50%–35% A from 2.4 to 2.7 min, 35–0% A from 2.7 until 4.5 min, 0% A until 6 min, 0-99% from 6 to 6.2 min, 99% A until 8.0 min. The gradient for CHD was as follows: 99%–90% A from 0 to 1 min, 90%–55% A from 1 to 2.3 min, 50%–40% A from 2.3 to 2.5 min, 40%–0% A from 2.5 to 4.5 min, 0% A until 6 min, 0%–99% A from 6 to 6.2 min, 99% A until 8.0 min. Mass transitions are depicted in Table S3. Peaks of PK and PD samples were quantified using the calibration curve. The accuracy of the calibration curve was determined using QCs independently prepared on different days. PK parameters were determined using a non-compartmental analysis with PKSolver ([55]).

[1] = plasma, 15 mg/kg IV, for CHD active CHD only

Row | Compound | epimerization in plasma and urine in vivo (15 mg/kg IV) | urine concentrations at time points > 24 hours (15 mg/kg IV) | F (bioavailability) (15 mg/kg PO, 15 mg/kg) | F (bioavailability) (15 mg/kg SC, 15 mg/kg) | AUC0-t (plasma, 15 mg/kg IV) | C0 (plasma, 15 mg/kg IV) | Cl/F_obs (plasma, 15 mg/kg IV) [mL/min/kg] | MRT (plasma, 15 mg/kg IV) [h] | Vz/F_obs (plasma, 15 mg/kg IV) [L/kg] | C0 [1] | t1/2 (plasma half-life) [1] [h] | AUC0-t (plasma, 15 mg/kg PO) | Cl/F_obs (plasma, 15 mg/kg PO) [mL/min/kg] | MRT (plasma, 15 mg/kg PO) [h] | Tmax (plasma, 15 mg/kg PO) [h] | Vz/F_obs (plasma, 15 mg/kg PO) [L/kg] | AUC0-t (plasma, 15 mg/kg SC) | Cl/F_obs (plasma, 15 mg/kg SC) [mL/min/kg] | MRT (plasma, 15 mg/kg SC) [h] | Vz/F_obs (plasma, 15 mg/kg SC) [L/kg] | also measured
1 | CC(=O)C1=C(O)[C@H](N)[C@@H]2Cc3c(c(O)c4c(O)c(C)ccc4c3C)C(=O)[C@]2(O)C1=O [CHD, chelocardin] | epimerization was also observed for CHD in plasma and to a lower extent in urine | already declined | 24% and 24.2% | 90% and 90.2% | 31,550.8 ± 2,722.6 ng/mL*h | more than 4 µg/mL | 7.9 ± 0.6 | 8.5 ± 0.2 | 5.6 ± 0.5 | 4,234.3 ± 1,737.1 ng/mL | 8.2 ± 0.3 | 7,636.3 ± 840.7 ng/mL*h | 31.0 ± 4.3 | 19.1 ± 4.1 | 3.3 ± 1.2 | 55.5 ± 14.5 | 28,457.0 ± 4,506.2 ng/mL*h | 8.1 ± 1.1 | 9.7 ± 1.8 | 4.8 ± 1.5 | Cmax of CHD relative to CDCHD (15 mg/kg PO, higher than CDCHD): more than 15 times; plasma levels of CHD relative to CDCHD (15 mg/kg SC, higher than CDCHD): around 10 fold; Cmax (plasma, 15 mg/kg PO): 460.5 ± 58.6 ng/mL; Cmax (plasma, 15 mg/kg SC): 2,109.3 ± 601.9 ng/mL; Tmax (plasma, 15 mg/kg SC): 4.0 ± 0.0 h; Cmax (plasma, 15 mg/kg SC (text)): around 2.1 µg/mL; plasma levels at 30 mg/kg IV compared with 15 mg/kg IV: in a similar range as for the 15 mg/kg IV dose; urine levels at 30 mg/kg IV compared with 15 mg/kg IV: increased urine levels; AUC of CHD relative to CDCHD (plasma, higher than CDCHD, stated in the 15 mg/kg SC paragraph): 3 times
2 | Cc1ccc2c(C)c3c(c(O)c2c1O)C(=O)C1(O)C(=O)C(C(N)=O)=C(O)C(N)C1C3 (centres unmarked) [CDCHD, 2-carboxamido-2-deacetyl-chelocardin] | This was not the case for CDCHD | found at high concentrations | 6% and 5.9% | 24% and 23.5% | 13,229.0 ± 1,147.2 ng/mL*h | around 1.3 µg/mL | 16.0 ± 1.4 | 33.4 ± 8.0 | 33.4 ± 6.1 | 1,336.4 ± 523.5 ng/mL | 24.3 ± 5.2 | 780.9 ± 187.8 ng·h/mL | 294.3 ± 99.2 | 27.9 ± 7.1 | 7.3 ± 1.6 | 394.5 ± 122.6 | 3,109.3 ± 592.0 ng/mL*h | 34.5 | 57.3 | 119.2 | plasma concentrations of CDCHD relative to the active CHD (15 mg/kg IV, time points > 24 hours, higher than active CHD): 10 fold; Cmax (plasma, 15 mg/kg SC, 15 mg/kg): 171 ng/mL and 171.7 ± 17.7 ng/mL; plasma levels at 30 mg/kg IV compared with 15 mg/kg IV: increased plasma levels (by a factor of more than two); urine levels at 30 mg/kg IV compared with 15 mg/kg IV: in a similar range

— PMC10783034, “Pharmacokinetic and pharmacodynamic evaluation of the atypical tetracyclines chelocardin and amidochelocardin in murine infection models” (Microbiology Spectrum, 2023)
